Measurements: patent publication US10836763B2, “5 to 7 membered heterocyclic amides as JAK inhibitors” (priority 2018, dated 2020)
Read-outs that look alike come from different tables or passages of the source.

How the values were obtained:
Tyk2 = Tyk2 (Homo sapiens (Human), UniProt P29597); assay: Biochemical JAK kinase assay (LanthaScreen), Tyk2
Protocol: (§1) Assay 1: Biochemical JAK Kinase Assays
(§2) A panel of four LanthaScreen JAK biochemical assays (JAK1, 2, 3 and Tyk2) were carried in a common kinase reaction buffer (50 mM HEPES, pH 7.5, 0.01% Brij-35, 10 mM MgCl2, and 1 mM EGTA). Recombinant GST-tagged JAK enzymes and a GFP-tagged STAT1 peptide substrate were obtained from Life Technologies.
(§3) Serially diluted compounds were pre-incubated with each of the four JAK enzymes and the substrate in white 384-well microplates (Corning) at ambient temperature for 1 h. ATP was subsequently added to initiate the kinase reactions in 10 μL total volume, with 1% DMSO. […] Kinase reactions were allowed to proceed for 1 hour at ambient temperature before a 10 μL preparation of EDTA (10 mM final concentration) and Tb-anti-pSTAT1 (pTyr701) antibody (Life Technologies, 2 nM final concentration) in TR-FRET dilution buffer (Life Technologies) was added. The plates were allowed to incubate at ambient temperature for 1 h before being read on the EnVision reader (Perkin Elmer). Emission ratio signals (520 nm/495 nm) were recorded and utilized to calculate the percent inhibition values based on DMSO and background controls.
(§4) For dose-response analysis, percent inhibition data were plotted vs. compound concentrations, and IC50 values were determined from a 4-parameter robust fit model with the Prism software (GraphPad Software). Results were expressed as pIC50 (negative logarithm of IC50) and subsequently converted to pKi (negative logarithm of dissociation constant, Ki) using the Cheng-Prusoff equation.

JAK3 = JAK3 (Homo sapiens (Human), UniProt P52333); assay type: biochemical
Protocol: as §1, §2, §3, §4

JAK2 = JAK2 (Homo sapiens (Human), UniProt O60674); assay: Biochemical JAK kinase assay (LanthaScreen), JAK2
Protocol: as §1, §2, §3, §4

[1] = system: IL-2 stimulated STAT5 phosphorylation in Tall-1 human T cell line; assay: Inhibition of IL-2 stimulated pSTAT5 in Tall-1 T cells; assay type: cell-based; details: TALL-1, 0.5 h, read-out: Tall-1 pIC50 (converted)
Protocol: Assay 2: Inhibition of IL-2 Stimulated pSTAT5 in Tall-1 T Cells
The potency of test compounds for inhibition of interleukin-2 (IL-2) stimulated STAT5 phosphorylation was measured in the Tall-1 human T cell line (DSMZ) using AlphaLisa.
Phosphorylated STAT5 was measured via the AlphaLISA SureFire Ultra pSTAT5 (Tyr694/699) kit (PerkinElmer).
Compounds were serially diluted in DMSO and dispensed acoustically to empty wells. Assay media (phenol red-free DMEM (Life Technologies) supplemented with 10% FBS (ATCC)) was dispensed (4 μL/well) and plates shaken at 900 rpm for 10 mins. Cells were seeded at 45,000 cells/well in assay media (4 μL/well), and incubated at 37° C., 5% CO2 for 1 hour, followed by the addition of IL-2 (R&D Systems; final concentration 300 ng/mL) in pre-warmed assay media (4 μL) for 30 minutes. […] The lysate was shaken at 900 rpm for 10 minutes at room temperature (RT). Phosphorylated STAT5 was measured via the pSTAT5 AlphaLisa kit (PerkinElmer). Freshly prepared acceptor bead mixture was dispensed onto lysate (5 μL) under green filtered <100 lux light. Plates were shaken at 900 rpm for 2 mins, briefly spun down, and incubated for 2 hrs at RT in the dark. Donor beads were dispensed (5 μL) under green filtered <100 lux light. Plates were shaken at 900 rpm for 2 minutes, briefly spun down, and incubated overnight at RT in the dark. Luminescence was measured with excitation at 689 nm and emission at 570 nm using an EnVision plate reader (PerkinElmer) under green filtered <100 lux light.
To determine the inhibitory potency of test compounds in response to IL-2, the average emission intensity of beads bound to pSTAT5 was measured in a human T cell line. IC50 values were determined from analysis of the inhibition curves of signal intensity versus compound concentration. Data are expressed as pIC50 (negative decadic logarithm IC50) values (mean±standard deviation).

[2] = system: IL-13 induced pSTAT6 in lung tissue; assay: Murine model of IL-13 induced pSTAT6 induction in lung tissue; assay type: in vivo, mouse; details: Balb/c mice, 1 mg/mL, 50 μL oral aspiration; IL-13 challenge 4 hours after compound; lung homogenate
Protocol: (§5) Assay 3: Murine (Mouse) Model of IL-13 Induced pSTAT6 Induction in Lung Tissue
IL-13 binds to cell surface receptors activating members of the Janus family of kinases (JAK) which then phosphorylate STAT6 and subsequently activates further transcription pathways. In the described model, a dose of IL-13 was delivered locally into the lungs of mice to induce the phosphorylation of STAT6 (pSTAT6) which is then measured as the endpoint.
Activity in the model is evidenced by a decrease in the level of pSTAT6 present in the lungs of treated animals at 5 hours compared to the vehicle treated, IL-13 challenged control animals. The difference between the control animals which were vehicle-treated, IL-13 challenged and the control animals which were vehicle-treated, vehicle challenged dictated the 0% and 100% inhibitory effect, respectively, in any given experiment.

[3] = Lung and plasma drug concentration in the murine IL-13 pSTAT6 model; assay type: in vivo; details: mouse, other: oral aspiration, 50 µg/mouse; for Kp at 5 h: Balb/c, lung ng/g to plasma ng/mL at 5 hours, mice, oral aspiration, read-out: Lung to Plasma ratio at 5 hr; for concentration at 5 h: Balb/c mice, 1 mg/mL, 50 μL oral aspiration, 5 hr post dose
Protocol: as §5
Adult Balb/c mice from Harlan were used in the assay. […] Animals were placed in lateral recumbency post dose and monitored for full recovery from anesthesia before being returned to their home cage. Four hours later, animals were once again briefly anesthetized and challenged with either vehicle or IL-13 (0.03 μg total dose delivered, 50 μL total volume) via oral aspiration before being monitored for recovery from anesthesia and returned to their home cage. One hour after vehicle or IL-13 administration, whole blood and lungs were collected for both pSTAT6 detection in lung homogenates using a Perkin Elmer AlphaLISA® SureFire® Ultra™ HV p-STAT6 (Tyr641) assay kit and for total drug concentration analysis in both lung and plasma. Blood samples were centrifuged (Eppendorf centrifuge, 5804R) for 4 minutes at approximately 12,000 rpm at 4° C. to collect plasma. […] Plasma and lung levels of test compound were determined by LC-MS analysis against analytical standards constructed into a standard curve in the test matrix. A lung to plasma ratio was determined as the ratio of the lung concentration in ng/g to the plasma concentration in ng/mL at 5 hours.

[4] = ATP at Km 10 μM, pIC50 converted with Cheng-Prusoff
[5] = ATP at Km 3 μM, pIC50 converted with Cheng-Prusoff
[6] = IL-2 300 ng/mL, 30 min, pSTAT5 AlphaLisa
[7] = lung, read-out: Lung Concentration (ng/g) at 5 hr
[8] = plasma, read-out: Plasma Concentration (ng/mL) at 5 hr

JAK2, sequence (O60674 whole entry): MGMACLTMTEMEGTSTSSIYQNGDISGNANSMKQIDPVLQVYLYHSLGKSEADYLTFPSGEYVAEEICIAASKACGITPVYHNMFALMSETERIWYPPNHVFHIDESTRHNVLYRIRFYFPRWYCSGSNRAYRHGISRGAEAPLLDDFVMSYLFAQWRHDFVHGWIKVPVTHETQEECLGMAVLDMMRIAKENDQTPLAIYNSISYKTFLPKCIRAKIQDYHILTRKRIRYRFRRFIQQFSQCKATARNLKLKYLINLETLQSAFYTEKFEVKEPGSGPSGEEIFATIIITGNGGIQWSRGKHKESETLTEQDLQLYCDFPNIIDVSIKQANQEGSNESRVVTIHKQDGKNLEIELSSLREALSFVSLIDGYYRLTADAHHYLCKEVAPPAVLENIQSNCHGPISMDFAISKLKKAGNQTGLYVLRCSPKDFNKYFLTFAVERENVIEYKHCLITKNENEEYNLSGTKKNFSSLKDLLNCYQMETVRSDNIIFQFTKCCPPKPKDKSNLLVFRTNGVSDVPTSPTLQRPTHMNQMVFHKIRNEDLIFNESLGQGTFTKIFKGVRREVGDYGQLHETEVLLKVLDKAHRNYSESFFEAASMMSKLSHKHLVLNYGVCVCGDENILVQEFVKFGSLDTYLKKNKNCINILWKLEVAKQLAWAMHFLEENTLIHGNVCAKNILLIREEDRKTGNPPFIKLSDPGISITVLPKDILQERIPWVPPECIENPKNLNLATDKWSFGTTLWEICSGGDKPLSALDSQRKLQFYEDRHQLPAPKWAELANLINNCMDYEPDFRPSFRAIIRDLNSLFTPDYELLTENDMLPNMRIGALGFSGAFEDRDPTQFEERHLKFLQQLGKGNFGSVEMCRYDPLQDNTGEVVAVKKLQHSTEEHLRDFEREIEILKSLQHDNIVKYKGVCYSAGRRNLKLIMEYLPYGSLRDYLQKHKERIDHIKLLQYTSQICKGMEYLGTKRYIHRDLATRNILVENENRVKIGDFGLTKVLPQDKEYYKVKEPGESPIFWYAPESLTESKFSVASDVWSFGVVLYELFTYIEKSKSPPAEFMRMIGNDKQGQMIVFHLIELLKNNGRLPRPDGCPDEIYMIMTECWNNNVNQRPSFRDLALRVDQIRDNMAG
JAK3, sequence (P52333 whole entry): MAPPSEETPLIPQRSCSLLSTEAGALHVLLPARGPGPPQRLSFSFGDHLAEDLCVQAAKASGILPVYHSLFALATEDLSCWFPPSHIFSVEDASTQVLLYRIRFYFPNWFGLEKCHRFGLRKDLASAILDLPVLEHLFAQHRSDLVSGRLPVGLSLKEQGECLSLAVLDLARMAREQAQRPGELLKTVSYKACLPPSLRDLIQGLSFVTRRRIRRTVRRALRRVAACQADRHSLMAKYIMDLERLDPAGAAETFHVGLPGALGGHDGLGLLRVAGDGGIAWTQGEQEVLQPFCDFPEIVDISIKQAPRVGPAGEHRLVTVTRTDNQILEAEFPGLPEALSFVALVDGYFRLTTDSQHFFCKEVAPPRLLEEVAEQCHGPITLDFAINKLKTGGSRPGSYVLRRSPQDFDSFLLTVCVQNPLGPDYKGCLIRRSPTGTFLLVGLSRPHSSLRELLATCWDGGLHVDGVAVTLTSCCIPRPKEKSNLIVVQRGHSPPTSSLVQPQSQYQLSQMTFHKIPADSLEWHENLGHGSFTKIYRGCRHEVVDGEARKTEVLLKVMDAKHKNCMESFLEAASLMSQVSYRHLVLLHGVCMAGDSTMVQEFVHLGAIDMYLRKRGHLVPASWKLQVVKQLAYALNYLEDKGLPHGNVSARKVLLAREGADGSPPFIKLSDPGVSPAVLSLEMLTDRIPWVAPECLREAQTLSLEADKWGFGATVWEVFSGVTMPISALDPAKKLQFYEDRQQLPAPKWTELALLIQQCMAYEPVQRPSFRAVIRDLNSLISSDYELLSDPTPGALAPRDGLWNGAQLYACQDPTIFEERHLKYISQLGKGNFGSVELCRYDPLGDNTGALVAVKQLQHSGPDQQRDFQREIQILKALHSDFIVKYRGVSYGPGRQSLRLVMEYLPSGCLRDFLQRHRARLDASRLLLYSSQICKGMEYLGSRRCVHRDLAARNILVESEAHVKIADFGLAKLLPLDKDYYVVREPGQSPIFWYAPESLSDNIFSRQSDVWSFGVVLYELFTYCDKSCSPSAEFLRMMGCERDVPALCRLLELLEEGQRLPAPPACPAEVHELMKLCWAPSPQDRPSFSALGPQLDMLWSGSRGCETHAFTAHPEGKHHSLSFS
Tyk2, sequence (P29597 whole entry): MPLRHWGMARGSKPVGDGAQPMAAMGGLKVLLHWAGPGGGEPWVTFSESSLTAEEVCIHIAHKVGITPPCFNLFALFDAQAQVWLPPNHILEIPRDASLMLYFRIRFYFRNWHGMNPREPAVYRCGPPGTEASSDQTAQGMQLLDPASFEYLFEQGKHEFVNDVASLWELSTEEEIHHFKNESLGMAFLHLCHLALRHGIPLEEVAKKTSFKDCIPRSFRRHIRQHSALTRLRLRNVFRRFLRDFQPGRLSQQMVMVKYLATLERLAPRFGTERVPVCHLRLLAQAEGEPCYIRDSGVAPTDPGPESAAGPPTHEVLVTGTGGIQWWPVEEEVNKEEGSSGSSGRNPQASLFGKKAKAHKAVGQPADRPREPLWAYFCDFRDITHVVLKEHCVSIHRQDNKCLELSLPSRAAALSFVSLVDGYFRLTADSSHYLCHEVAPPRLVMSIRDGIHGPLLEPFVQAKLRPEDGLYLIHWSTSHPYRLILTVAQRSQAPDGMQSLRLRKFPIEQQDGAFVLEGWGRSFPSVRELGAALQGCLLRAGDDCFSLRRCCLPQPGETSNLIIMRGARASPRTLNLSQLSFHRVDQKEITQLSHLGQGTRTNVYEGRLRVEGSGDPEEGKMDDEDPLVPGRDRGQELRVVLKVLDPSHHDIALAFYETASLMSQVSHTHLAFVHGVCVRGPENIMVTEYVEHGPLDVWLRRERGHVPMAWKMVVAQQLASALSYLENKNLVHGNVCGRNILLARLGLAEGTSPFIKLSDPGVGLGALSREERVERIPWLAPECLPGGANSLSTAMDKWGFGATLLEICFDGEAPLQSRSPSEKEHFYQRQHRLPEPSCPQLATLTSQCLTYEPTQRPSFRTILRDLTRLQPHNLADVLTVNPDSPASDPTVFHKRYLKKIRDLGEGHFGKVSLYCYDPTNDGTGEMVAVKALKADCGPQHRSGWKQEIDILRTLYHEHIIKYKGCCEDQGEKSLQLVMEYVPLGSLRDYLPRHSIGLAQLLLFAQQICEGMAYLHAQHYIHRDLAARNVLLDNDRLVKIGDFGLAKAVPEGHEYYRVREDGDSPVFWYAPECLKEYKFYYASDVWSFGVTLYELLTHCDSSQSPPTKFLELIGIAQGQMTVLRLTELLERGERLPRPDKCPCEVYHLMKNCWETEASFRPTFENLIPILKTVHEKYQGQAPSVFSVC

SMILES | Tyk2 pKi (Tyk2; [4]) | JAK3 PKi (JAK3) | JAK2 pKi (JAK2; [5]) | IC50 [1, 6] [nM] | Tyk2 pKi (Tyk2) | pSTAT6 inhibition at 5 hours [2] [%] | JAK2 pKi (JAK2) | Kp at 5 h [3] | concentration at 5 h [3, 7] [ng/g] | concentration at 5 h [3, 8] [ng/mL] | IC50 [1] [nM] | JAK3 PKi (JAK3; ATP at Km 1.6 μM, pIC50 converted with Cheng-Prusoff)
CCc1cc(O)c(F)cc1-c1ccc2c(-c3nc4c([nH]3)CN(C)[C@H](C(=O)N3CCN(CCO)C[C@H]3C)C4)n[nH]c2c1 [Compound C-5, ((S)-2-(6-(2-ethyl-5-fluoro-4-hydroxyphenyl)-1H-indazol-3-yl)-5-methyl-4,5,6,7-tetrahydro-3H-imidazo[4,5-c]pyridin-6-yl)((R)-4-(2-hydroxyethyl)-2-methyl-piperazin-1-yl)methanone, reference compound] | 9.5 | 9.9 | 10.7 | 2.51 | – | – | – | – | – | – | – | –
CCc1cc(O)c(F)cc1-c1ccc2c(-c3nc4c([nH]3)CN(C(C)C)[C@H](C(=O)N3CCCN(C)CC3)C4)n[nH]c2c1 [Compound C-4, (S)-(2-(6-(2-ethyl-5-fluoro-4-hydroxyphenyl)-1H-indazol-3-yl)-5-isopropyl-4,5,6,7-tetrahydro-3H-imidazo[4,5-c]pyridin-6-yl)(4-methyl-1,4-diazepan-1-yl)methanone, reference compound] | 9.3 | 9.8 | 10.6 | 2 | – | – | – | – | – | – | – | –
CCc1cc(O)ccc1-c1ccc2c(-c3nc4c([nH]3)CN(C(C)C)[C@H](C(=O)N3CC[C@H](N(C)C)C3)C4)n[nH]c2c1 [Compound 6, ((S)-3-(dimethylamino)pyrrolidin-1-yl)((S)-2-(6-(2-ethyl-4-hydroxyphenyl)-1H-indazol-3-yl)-5-isopropyl-4,5,6,7-tetrahydro-3H-imidazo[4,5-c]pyridin-6-yl)methanone] | – | 10.0 | – | – | 9.0 | 37 | 10.4 | 1030 | 11600 ± 4680 | 11.3 ± 5.7 | 2 | –
CCCN1Cc2[nH]c(-c3n[nH]c4cc(-c5ccc(O)cc5CC)ccc34)nc2C[C@H]1C(=O)N1C[C@@H]2C[C@H]1CN2C [Compound 2, ((S)-2-(6-(2-ethyl-4-hydroxyphenyl)-1H-indazol-3-yl)-5-propyl-4,5,6,7-tetrahydro-3H-imidazo[4,5-c]pyridin-6-yl)((1S,4S)-5-methyl-2,5-diazabicyclo[2.2.1]heptan-2-yl)methanone] | 8.9 | – | 10.2 | 3.98 | – | 72 | – | 1340 | 23400 ± 12500 | 17.5 ± 25 | – | 9.8
CCc1cc(O)c(F)cc1-c1ccc2c(-c3nc4c([nH]3)CN(C)[C@H](C(=O)N3CCN(C)C[C@@H]3C)C4)n[nH]c2c1 [Compound C-3, ((S)-2,4-dimethylpiperazin-1-yl)((S)-2-(6-(2-ethyl-5-fluoro-4-hydroxyphenyl)-1H-indazol-3-yl)-5-methyl-4,5,6,7-tetrahydro-3H-imidazo[4,5-c]pyridin-6-yl)methanone, reference compound] | 9.3 | 9.7 | 10.5 | 2 | – | – | – | – | – | – | – | –
CCCN1Cc2[nH]c(-c3n[nH]c4cc(-c5cc(F)c(O)cc5CC)ccc34)nc2C[C@H]1C(=O)N1C[C@@H]2C[C@H]1CN2C [Compound C-2, ((S)-2-(6-(2-ethyl-5-fluoro-4-hydroxyphenyl)-1H-indazol-3-yl)-5-propyl-4,5,6,7-tetrahydro-3H-imidazo[4,5-c]pyridin-6-yl)((1S,4S)-5-methyl-2,5-diazabicyclo-[2.2.1]heptan-2-yl)methanone, reference compound] | 9.5 | 9.9 | 10.8 | 2.51 | – | – | – | – | – | – | – | –
CCc1cc(O)ccc1-c1ccc2c(-c3nc4c([nH]3)CN(C(C)C)[C@H](C(=O)N3CCCN(C)CC3)C4)n[nH]c2c1 [Compound 4, (S)-(2-(6-(2-ethyl-4-hydroxyphenyl)-1H-indazol-3-yl)-5-isopropyl-4,5,6,7-tetrahydro-3H-imidazo[4,5-c]pyridin-6-yl)(4-methyl-1,4-diazepan-1-yl)methanone] | – | 10.1 | – | – | 9.0 | 67 | 10.4 | 788 | 17400 ± 6620 | 22 ± 23 | 2.51 | –
CCCN1Cc2[nH]c(-c3n[nH]c4cc(-c5cc(F)c(O)cc5CC)ccc34)nc2C[C@H]1C(=O)N1CCN(CCO)CC1 [Compound C-1, (S)-(2-(6-(2-ethyl-5-fluoro-4-hydroxyphenyl)-1H-indazol-3-yl)-5-propyl-4,5,6,7-tetrahydro-3H-imidazo[4,5-c]pyridin-6-yl)(4-(2-hydroxyethyl)piperazin-1-yl)methanone, reference compound] | 9.1 | 9.7 | 10.5 | 2 | – | – | – | – | – | – | – | –
